Holding throughout (assay): Inhibition ELISA (cross reactivity), solidified GA-BSA conjugate as antigen
Common to all, as to format: binding, mouse
For orientation: ELISA stands for enzyme-linked immunosorbent assay.

Test [1] concerns monoclonal antibody produced by a strain GA2-20-1. Particulars: for 50 % inhibition concentration (IC 50): monoclonal antibody 2-20-1, 50-fold diluted, from inhibition curves; for cross reactivity: monoclonal antibody 2-20-1, values in parenthesis, relative to (GA). As to the method:
(§1) Inhibition ELISA comprises sequentially incubating the solidified GA-BSA conjugate with glycyrrhetic acid or a sample together with the antibody, bonding the enzyme-labeled anti-mouse IgG to the resulting incubation mixture, thereby measuring the enzyme activity. The antibody bonded to the antigen contained in the sample cannot be bonded to the solidified antigen, and therefore, the amount of the enzyme bonded is reduced. By measuring the enzyme activity, glycyrrhetic acid contained in the sample can be measured. The amount of glycyrrhizin can be determined by measuring glycyrrhetic acid generated by the acid hydrolysis of glycyrrhizin.
(§2) According to direct ELISA, the antibody solution is divided into each well; according to inhibition ELISA, glycyrrhetic acid or a sample solution is divided into each well together with the antibody solution. After left to stand at ambient temperature, the wells are washed before the division of an enzyme-labeled anti-mouse IgG solution, and then the wells are left to stand at ambient temperature.
(§3) After washing each well again, a solution of a dye which develops color on enzyme reaction is divided into the washed wells for reaction. After the completion of the reaction, the absorbance of each well at 405 nm is measured with an immunoreader. By comparing the results with the values obtained from known amounts of the antigen, glycyrrhetic acid can be assayed.
(§4) The cross reactivity to the following individual compounds was examined according to inhibition ELISA. • (1) 18α H-Olean-11-oxo-12ene-30-oic acid • (2) Olean-12ene-3,11-dioxo-30-oic acid • (3) Olean-12ene-3α-hydroxy-11-oxo-30-oic- acid • (4) Olean-12ene-11-oxo-3β, 30-diol • (5) Cholic acid • (6) Deoxy cholic acid • (7) Glycyrrhetlc acid (GA) • (8) Glycyrrhizin (GL) These are illustrated as compounds (1), (2), (3), (4), (5), (6), (GA) and (GL).
(§5) One hundred µℓ each of the GA-BSA solution (10 µg/mℓ) was divided in the wells of a 96-well microtiter plate and left to stand overnight at 4° C. After removing the antigen solution, 100 µℓ each of the BSA-PBS was divided and left to stand at 37° C for one hour.
(§6) The 50-fold diluted antibody and each of the compounds were individually adjusted to 10 ng/mℓ, 100 ng/mℓ and 1000 ng/mℓ. Fifty µℓ each of the adjusted solution was divided in each well. After left to stand at ambient temperature for 30 minutes, the wells were washed three times with the PBS containing 0.05 % Tween 20, and washed twice with PBS, followed by the division of the 5000-fold dilution of goat anti-mouse IgG labeled with alkaline phosphatase, and left to stand at room temperature for 30 minutes.
(§7) After each well was washed following the same procedure described above, 100 µℓ each of 1M diethanolamine buffer (pH 9.8) containing p-nitrophenyl phosphate at a concentration of 1 mg/mℓ was divided and reacted at 37° C for 30 minutes. After the completion of the reaction, 2M sodium hydroxide was added. Then, the absorbance at 405 nm of each well was measured with an immunoreader.
(§8) From the inhibition curves obtained, 50 % inhibition concentration (IC 50) of each compound was determined. The antibody generated by the strain GA2-20-1, among the three strains, had the highest specificity.

The subject of test [2] is monoclonal antibody produced by a strain GA2-20-6. Particulars: for 50 % inhibition concentration (IC 50): monoclonal antibody 2-20-6, 50-fold diluted, from inhibition curves; for cross reactivity: monoclonal antibody 2-20-6, values in parenthesis, relative to (GA). How it is done: as §1, §2, §3, §4, §5, §6, §7, §8
Test [3] concerns monoclonal antibody produced by a strain GA2-20-3. Particulars: for 50 % inhibition concentration (IC 50): monoclonal antibody 2-20-3, 50-fold diluted, from inhibition curves; for cross reactivity: monoclonal antibody 2-20-3, values in parenthesis, relative to (GA). As to the method:
as §1, §2, §3, §4, §5, §6, §7, §8

“18α H-Olean-11-oxo-12ene-30-oic acid [compound (1)]”: the entries for the “50 % inhibition concentration (IC 50)” value in test [1], in test [2] and in test [3] were 0.0876 µg/mL, 0.0975 µg/mL and 0.0878 µg/mL, respectively. In addition, the cross reactivity entry is “(18.2) %” in test [1], “(45.5) %” in test [2] and “(37.5) %” in test [3].
As to `CC1(C)C(=O)CC[C@]2(C)[C@H]3C(=O)C=C4[C@@H]5C[C@@](C)(C(=O)O)CC[C@]5(C)CC[C@@]4(C)[C@]3(C)CC[C@@H]12` [(2), Olean-12ene-3,11-dioxo-30-oic acid], the “50 % inhibition concentration (IC 50)” value in test [1] was 0.8317 µg/mL; in test [2] it was >1 µg/mL; in test [3] it was 0.9571 µg/mL. The values for the cross reactivity result in test [1], in test [2] and in test [3] were “( 1.9) %”, “(<1.6) %” and “( 3.4) %”, respectively.
For the molecule `CC1(C)[C@H](O)CC[C@]2(C)[C@H]3C(=O)C=C4[C@@H]5C[C@@](C)(C(=O)O)CC[C@]5(C)CC[C@@]4(C)[C@]3(C)CC[C@@H]12` [(3), Olean-12ene-3α-hydroxy-11-oxo-30-oic-acid], the “50 % inhibition concentration (IC 50)” value in test [1] was 0.6954 µg/mL; in test [2], 0.7933 µg/mL; in test [3] it was 0.6765 µg/mL. The results for the cross reactivity result in test [1], in test [2] and in test [3] were “( 2.3) %”, “( 5.6) %” and “( 4.9) %”, respectively.
In the case of `CC1(C)[C@@H](O)CC[C@]2(C)[C@H]3C(=O)C=C4[C@@H]5C[C@@](C)(CO)CC[C@]5(C)CC[C@@]4(C)[C@]3(C)CC[C@@H]12` [(4), Olean-12ene-11-oxo-3β, 30-diol], the “50 % inhibition concentration (IC 50)” value was 0.4372 µg/mL in test [1], 0.4254 µg/mL in test [2] and 0.4767 µg/mL in test [3]. Also, the cross reactivity entry in test [1] is “( 3.6) %”; in test [2] it was “(10.4) %”; in test [3], “( 6.9) %”.
As to `CC1(C)[C@@H](O[C@H]2O[C@H](C(=O)O)[C@@H](O)[C@H](O)[C@H]2O[C@@H]2O[C@H](C(=O)O)[C@@H](O)[C@H](O)[C@H]2O)CC[C@]2(C)[C@H]3C(=O)C=C4[C@@H]5C[C@@](C)(C(=O)O)CC[C@]5(C)CC[C@@]4(C)[C@]3(C)CC[C@@H]12` [(GL), Glycyrrhizin], the “50 % inhibition concentration (IC 50)” value in test [1], in test [2] and in test [3] was >1 µg/mL each time. Moreover, the cross reactivity result in test [1], in test [2] and in test [3] was “(<1.6) %” in each case.
Turning to `C[C@H](CCC(=O)O)[C@H]1CC[C@H]2[C@@H]3[C@H](O)C[C@@H]4C[C@H](O)CC[C@]4(C)[C@H]3C[C@H](O)[C@]12C` [compound (5), Cholic acid], the “50 % inhibition concentration (IC 50)” value in test [1], in test [2] and in test [3] was >1 µg/mL each time. Moreover, the cross reactivity entry in test [1], in test [2] and in test [3] was “(<1.6) %” in each case.
Turning to Glycyrrhetlc acid [(GA)], the “50 % inhibition concentration (IC 50)” value in test [1] turned out to be 0.0159 µg/mL; in test [2], 0.0444 µg/mL; in test [3] it was 0.0329 µg/mL.
